Earlier results on two compounds are cited in patent EP2343054A1, “Pellets and microparticles of pravastatin sodium and a process of making them” (LEK Pharmaceuticals d.d., priority 2010, dated 2011).

For data set [1] the following is noted: pH 3 or less, as found in the stomach.
The conditions of data set [2]: pH of 7.0.

As for `CC[C@H](C)C(=O)O[C@H]1C[C@H](O)C=C2C=C[C@H](C)[C@H](CC[C@@H](O)C[C@@H](O)CC(=O)O)[C@H]21` [Pravastatin sodium], in data set [1], the “stability at low pH” value is “very unstable”. Moreover, the “partition coefficient (octanol/water)” value in data set [2] is recorded as 0.23.
Turning to `CC[C@H](C)C(=O)O[C@H]1C[C@H](O)C=C2C=C[C@H](C)[C@H](CC[C@@H](O)C[C@@H](O)CC(=O)O)[C@H]21` [pravastatin, (+)-(3R, 5R) -3,5-dihydroxy-7-[(1 S, 2S, 6S, 8S, 8aR)-6-hydroxy-2-methyl-8-[(S)-2-methylbutyryloxy]-1,2,6,7,8,8a-hexahydro-1-naphthyl] heptanoate], the average oral absorption is recorded as 34%. Also, the absolute bioavailability (oral) is 17%.
